US20030199449A1, “Combination of ablation and controlled drug delivery for the treatment of cancer” (priority 2002, published 2003)

What was measured:
in vivo = settings: RF ablated liver; for concentration at 24 h: male, Sprague Dawley, rat, in vivo, 5-FU concentration in liver tissue
Excerpt: The medial lobe of each liver was exposed through a small midline incision.
For the ablation procedure, the livers were placed on a wire mesh grounding pad and a saline soaked sponge. Ablation was accomplished using a 200-W radiofrequency generator (model CTRF-A, Radionics, Burlington, Mass.) using a 19-gauge needle electrode (model PE-D(10)(2) Radionics , Burlington, Mass.). Ablation was initiated by inserting the needle electrode into a needle tract made with a 23-gauge needle in the center of the lobe. The electrode was inserted to a depth of approximately 8-mm. The hepatic tissue exposed to the radiofrequency current was raised to a temperature of 90° C. for 3 min. […] After the electrode was removed, a 5-FU rod was placed in the probe tract and a fat pad was sewn over the top.

[1] = Body weight change after RFA plus 5-FU rods in VX-2 tumor rabbits; assay type: in vivo, New Zealand white rabbits; settings: RFA plus 5-FU subgroup, last 14 days following RFA
Method: Male New Zealand white rabbits (−3 kg) were used and were cared for in accordance with the Case Western Reserve University animal research center regulations. The rabbits were anesthetized using a combination of xylazine (5 mg/kg body weight BW) and ketamine (50 mg/kg BW), acepromazine (2 mg/kg), and atropine (0.2 mg/kg) given by i.m. injection. The abdomen was shaved and cleaned with povidone-iodine solution (Betadine) and 0.5 ml of Marcaine was administered into the skin at the incision site. A small midline incision was made and the medial lobe of the liver was exposed and exteriorized. The capsule of the medial lobe was punctured with a scalpel blade and a small piece of VX-2 tumor (1 mm^3), which was propagated in another rabbit and stored in liquid nitrogen for later use, was inserted into the liver parenchyma. A small piece of fat was sutured over the implant site. The abdominal muscles were closed with suture and the skin was closed with subcutaneous hidden sutures. During the recovery period, all animals received buprenophrine (Buprenex, 0.5 mg/kg, i.m.), soon after surgery and once again 24 hrs later for pain. If the animals were later perceived to be in pain, additional buprenophrine was given as needed. The rabbits also received a subcutaneous injection of 25 ml of 0.9% saline during recovery and 24 hrs later. […]

[2] = In-vitro release of 5-FU from poly(CPP:SA) implants; assay type: physicochemical; settings: 37° C., 120 rpm
Method: The drug 5-fluorouracil was analyzed by HPLC using a Regis C-18 reverse phase column. The mobile phase was deionized water at a flow rate of 0.6 ml/min and the injection volume was10 μl. The detector was set to monitor 266 nm. Calibration standards for the method were prepared as follows: A mass of 13 mg of 5-FU was dissolved in deionized water in a 50 ml volumetric flask to make a 2.00 mM stock solution. Sequential dilutions of the stock solution give standard solutions of 1.00, 0.200, 0.0500, 0.0100 and 0.00100 mM, respectively. The standards for the metabolite 5-FUR were similarly prepared at the concentrations of 2.00, 1.00, 0.200, 0.0500, 0.0100 and 0.00100 mM, respectively. The HPLC peak area of 5-FU and 5-FUR varied linearly with concentrations in the standard test range of 0.001-2 mM.
To measure in-vitro drug release of 5-F U from the implants, solid samples were pre-weighed and placed in a sterile 50-ml conical tubes filled with 20 ml of either phosphate buffered saline (PBS) or fetal bovine serum (FBS). The tubes were placed on the Gyromax 929 shaker adjusted to 37° C. and 120 rpm. Periodically, 0.1 ml of the solutions was transferred into a vial and diluted 20 times with deionized water. Aliquots of 0.1 ml of fresh PBS or FBS was added to the conical tubes each time to maintain a constant volume. […]

[3] = Local drug concentration distribution in normal (unablated) rat liver after implantation of 5-FU rod; settings: 24 h, insertion point vs periphery
VX-2 tumor = assay: 5-FU rods plus radio-frequency ablation in VX-2 tumors in the liver of rabbits, tumor volume; assay type: in vivo, New Zealand white rabbits
Method: Male New Zealand white rabbits (−3 kg) were used and were cared for in accordance with the Case Western Reserve University animal research center regulations. The rabbits were anesthetized using a combination of xylazine (5 mg/kg body weight BW) and ketamine (50 mg/kg BW), acepromazine (2 mg/kg), and atropine (0.2 mg/kg) given by i.m. injection. The abdomen was shaved and cleaned with povidone-iodine solution (Betadine) and 0.5 ml of Marcaine was administered into the skin at the incision site. A small midline incision was made and the medial lobe of the liver was exposed and exteriorized. The capsule of the medial lobe was punctured with a scalpel blade and a small piece of VX-2 tumor (1 mm^3), which was propagated in another rabbit and stored in liquid nitrogen for later use, was inserted into the liver parenchyma. A small piece of fat was sutured over the implant site. The abdominal muscles were closed with suture and the skin was closed with subcutaneous hidden sutures. During the recovery period, all animals received buprenophrine (Buprenex, 0.5 mg/kg, i.m.), soon after surgery and once again 24 hrs later for pain. If the animals were later perceived to be in pain, additional buprenophrine was given as needed. The rabbits also received a subcutaneous injection of 25 ml of 0.9% saline during recovery and 24 hrs later.
Fourteen days after tumor implantation, the rabbits were anesthetized again using the protocol given above. The medial lobe of the liver was exteriorized and examined for tumor growth. The size of the tumor was approximately 0.5-1.0 cm in diameter and extended into the liver parenchyma. Before radio frequency ablation, a grounding pad was placed under the exteriorized medial lobe of the liver. […]
Tumor volumes after 28 days of growth, calculated from the digital photographs as well as the integration of the CT slices though the tumors of each rabbit, are given in the table below: […]

neoplastic tissue = settings: reported; cited from earlier work
[4] = ablation + three 5-FU rods at day 14, after 28 days of growth, N = 4

Structure (SMILES)	spatial distribution in ablated liver (in vivo; 5-FU rod in probe tract, 24 h and 48 h)	increase in body weight [1] [%]	time to release 75% of the 5-FU from implant ([2]; FBS) [days]	time to release 75% of the 5-FU from implant ([2]; PBS) [days]	spatial distribution in normal (unablated) liver [3]	concentration at 24 h (in vivo; between 6 and 18 mm away from the ablation center) [ng/g]	concentration at 24 h (in vivo; within 24 h, immediate vicinity of the ablation site (~6 mm radius)) [ng/g]	reduction in tumor size (VX-2 tumor; ablation + local sustained release 5-FU vs ablation only) [%]	Tumor Volumes, mean (1 SD), CT Scan (VX-2 tumor; [4])	Tumor Volumes, mean (1 SD), Digital Photography (VX-2 tumor; [4])	level in neoplastic tissue sufficient for a clinical effect (neoplastic tissue) [µg/g]
O=c1[nH]c(=O)n([C@H]2C[C@H](O)[C@@H](CO)O2)cc1F [5-FUR, 5-floxuridine]	contains less 5-FUR than that further away from the ablation site	–	–	–	–	–	–	–	–	–	–
O=c1[nH]cc(F)c(=O)[nH]1 [5-FU, 5-fluorouracil]	–	2	2	9	essentially the same throughout the whole liver	~12000	≤ 41000	~50	1.71 (0.56) cm^3	1.24 (0.55) cm^3	0.05
